In patent publication US20240034753A1, “THERAPEUTIC PEPTIDES” (COHBAR, INC., priority 2020, published 2024):
Square brackets hold non-standard residues; d marks the D form. Ends that are not written are not given here. Peptide text beside a SMILES is read from it.

How the values were obtained:
[1] = system: C2C12 Mouse Myoblasts; test: Glucose utilization (glucose remaining in medium); format: cell-based; conditions: peptide 10 μM, 18-22 hours, relative to 0.1% DMSO treated control cells
Experimental: The effect of the peptides on glucose metabolism can be assessed using an assay of glucose utilization in cultured cells such as mouse myoblasts. Peptides were initially prepared as 10 mM stock in DMSO and used at a final concentration of 10 μM (0.1% DMSO). C2C12 mouse myoblast cell line was purchased from American Type Culture Collection (Manassas, VA). C2C12 cultures were maintained at 37° C. in a humidified atmosphere of 5% CO2/95% air with medium changes every second day. C2C12 cells were grown in DMEM (1 g/L glucose) supplemented with 10% FBS with 100 IU/ml penicillin and 100 μg/ml streptomycin. C2C12 cells were seeded at 7,000 cells per well on 96-well plates and cultured to confluence. Once the cell reached confluence the media was changed to DMEM (1 g/L glucose) supplemented with 2% HS with 100 IU/ml penicillin and 100 μg/ml streptomycin and maintained at 37° C. in a humidified atmosphere of 5% CO2/95% air. 5 days post-induction of differentiation fresh DMEM (1 g/L glucose) supplemented with 2% HS with 100 IU/ml penicillin and 100 μg/ml streptomycin was added to cultures. Cells were maintained at 37° C. in a humidified atmosphere of 5% CO2 and 95% air for 5 hours. After 5 hours test peptides at 10 μM or controls (0.5 mM or 1 mM metformin in 1% DMSO) prepared in fresh differentiation medium were added to cells and the cultures were maintained at 37° C. in a humidified atmosphere of 5% CO2/95% air for 18-22 hours. At the end of the incubation culture media was removed from the cells and the remaining glucose concentration was measured using a Glucose Assay kit (Abcam) according to the manufacturer's instructions, using a Cytation 3 plate reader at 570 nm (BioTek, Winooski, VT). Glucose concentrations in the medium were calculated relative to 0.1% DMSO treated control cells. The relative standard deviation of the result for the 0.1% DMSO treated control was <20%. Metformin was used as a positive control for reduction of glucose levels (increased glucose utilization glucose levels for treatment with metformin (1 mM) treatment were <20% of the 0.1% DMSO treated control value. The results are reported in Table 11.

[2] = system: A172 human brain glioblastoma cell line; test: Caspase-Glo 3/7 assay of caspase 3/7 activity in cultured cells; format: cell-based; conditions: peptide 10 μM, 18-20 hours, relative to 0.1% DMSO control
Experimental: The effect of the peptides on cell death/survival can be assessed using a […] assay in cultured cells. Peptides were dissolved at 10 mM in DMSO as stock solutions for use at a final concentration of 10 μM. […] Caspase-Glo 3/7 Assay Reagent was purchased from Promega (Madison, WI). A172 human brain glioblastoma cell line was purchased from American Type Culture Collection (Manassas, VA). A172 cells were grown in DMEM supplemented with 10% FBS with 100 IU/ml penicillin and 100 μg/ml streptomycin. Cultures were maintained at 37° C. in a humidified atmosphere of 5% CO2/95% air. A172 cells were seeded at 8,000 cells per well on 96-well plates. […] Caspase 3/7 activity was determined using a Caspase-Glo 3/7 Assay kit (Promega) according to the manufacturer's instructions. Luminescence for each sample well on the plate was measured using a Cytation 3 plate reader (BioTek, Winooski, VT). Activity was calculated relative to 0.1% DMSO control.

[3] = system: SH-SY5Y Neuroblastoma Cells Exposed to Staurosporine; test: ATP levels in cells exposed to staurosporine (CellTiter-Glo); format: cell-based, human; conditions: peptide 10 μM plus staurosporine (40 μM), 18-20 hours; <100% cytoprotective, >100% synergistic
Experimental: Peptides were initially prepared as 10 mM stock in DMSO and tested at a final concentration of 10 μM (0.1% DMSO). […] […] CellTiter-Glo® Assay kit was purchased from Promega. SH-SY5Y human neuroblastoma cell line was purchased from American Type Culture Collection (Manassas, VA) and licensed from Memorial Sloan-Kettering Cancer Center (New York, NY). SH-SY5Y cells were grown in DMEM/F12 medium supplemented with 10% FBS with 100 IU/ml penicillin and 100 μg/ml streptomycin. Cultures were maintained at 37° C. in a humidified atmosphere of 5% CO2/95% air. SH-SY5Y cells were seeded at 30,000 cells per well on 96-well plates. […] ATP levels were determined using a CellTiter-Glo Assay kit (Promega) according to the manufacturer's instructions. Luminescence for each sample well on the plate was measured using a Cytation 3 plate reader (BioTek, Winooski, VT). […] A value less than 100% is indicative of a cytoprotective effect, while a value greater than 100% is indicative of a synergistic effect on viability.

[4] = system: 3T3-L1 Mouse Adipocytes; test: Free fatty acid levels in cultured mouse adipocytes stimulated with isoproterenol; format: cell-based; conditions: peptide 10 μM, 20-22 hours then 3 hours with 1 nM isoproterenol; relative to isoproterenol treated cells
Experimental: The effect of the peptides on fatty acid metabolism can be assessed using an assay of free fatty acid levels in cultured cells such as mouse adipocytes. Peptides were initially prepared as 10 mM stock in DMSO and used at a final concentration of 10 μM (0.1% DMSO). […] Mouse 3T3-L1 cells purchased from ZenBio were seeded at 3,000 cells per well in 96-well plates in Pre-adipocyte Medium (Zen-Bio) and grown to confluence at 37° C. in a humidified atmosphere of 5% CO2/95% air. Two days after confluence, cells were placed in Adipocyte Differentiation Medium (Zen-Bio) and cultured for three additional days at 37° C. in a humidified atmosphere of 5% CO2/95% air. The culture media was then replaced with Adipocyte Maintenance Medium (Zen-Bio) and the cells maintained for an additional 9-12 days at 37° C. in a humidified atmosphere of 5% CO2/95% air with partial medium replacement every other day. Following 12-15 days of differentiation, test peptides were added at a final concentration of 10 μM in 0.1% DMSO and incubated for 20-22 hours in Adipocyte Maintenance Medium at 37° C. in a humidified atmosphere of 5% CO2/95% air. After 20-22 hours, 1 nM isoproterenol was added to all wells except untreated controls and test peptides were replenished. Insulin at 100 nM was added to control wells. Cells were incubated for 3 hours in Assay Buffer (Zen-Bio) at 37° C. in a humidified atmosphere of 5% CO2/95% air. Free fatty acid concentrations in the media were determined using a Free Fatty Acid Assay kit (Zen-Bio) according to the manufacturer's instructions using a Cytation 3 plate reader at 540 nm (BioTek, Winooski, VT). Absorbance values were corrected for untreated background and expressed relative to isoproterenol treated cells. Treatment with isoproterenol (1 nM) alone was used as the free fatty acid level stimulatory control. The relative standard deviation of the isoproterenol control was <10%. […] Free fatty acid levels for insulin (100 nM) treatment were <5% of the isoproterenol control value.

CC[C@H](C)[C@H](NC(=O)[C@@H](NC(=O)[C@H](Cc1c[nH]cn1)NC(=O)[C@H](CCCNC(=N)N)NC(=O)[C@H](CC(=O)O)NC(=O)[C@H](Cc1ccc(O)cc1)NC(=O)[C@H](CC(C)C)NC(=O)[C@H](CC(C)C)NC(=O)[C@@H](NC(=O)[C@@H](N)Cc1c[nH]c2ccccc12)C(C)C)C(C)C)C(=O)NCC(=O)NCC(=O)N[C@@H](CO)C(=O)N[C@@H](CC(C)C)C(=O)N[C@@H](CS)C(=O)N[C@H](C(=O)N[C@H](C(=O)N[C@H](C(=O)N[C@@H](CCC(N)=O)C(=O)N[C@H](C(=O)N[C@@H](CCC(=O)O)C(=O)N[C@H](C)C(=O)N[C@@H](Cc1ccc(O)cc1)C(=O)O)C(C)C)C(C)C)C(C)C)C(C)C [compound 23] (H-WVLLYDRHVIGGSLCVVVQVE[dA]Y-OH; N-terminus and C-terminus assumed)
Glucose Utilization (glucose concentration in medium), Percent of Untreated Control [1]: 109.6%
Caspase 3/7 Activity, Percent of Control Activity [2]: 104.3%
Percent of ATP Reduction Induced by Control [3]: 69.6%
Free Fatty Acid Levels, MEAN %ISO [4]: 77.1%

CC[C@H](C)[C@H](NC(=O)[C@@H](NC(=O)[C@H](Cc1c[nH]cn1)NC(=O)[C@H](CCCNC(=N)N)NC(=O)[C@H](CC(=O)O)NC(=O)[C@H](Cc1ccc(O)cc1)NC(=O)[C@H](CC(C)C)NC(=O)[C@H](CC(C)C)NC(=O)[C@@H](NC(=O)[C@@H](N)Cc1c[nH]c2ccccc12)C(C)C)C(C)C)C(=O)NCC(=O)NCC(=O)N[C@@H](CO)C(=O)N[C@@H](CC(C)C)C(=O)N[C@@H](CS)C(=O)N[C@H](C(=O)N[C@H](C(=O)N[C@H](C(=O)N[C@@H](CCC(N)=O)C(=O)N[C@H](C(=O)N[C@@H](CCC(=O)O)C(=O)N[C@H](C)C(=O)O)C(C)C)C(C)C)C(C)C)C(C)C [compound 24] (H-WVLLYDRHVIGGSLCVVVQVE[dA]-OH; N-terminus and C-terminus assumed)
Glucose Utilization (glucose concentration in medium), Percent of Untreated Control [1]: 109.1%
Caspase 3/7 Activity, Percent of Control Activity [2]: 108.8%
Percent of ATP Reduction Induced by Control [3]: 80.4%
Free Fatty Acid Levels, MEAN %ISO [4]: 93.7%

CC[C@H](C)[C@H](NC(=O)[C@@H](NC(=O)[C@H](Cc1c[nH]cn1)NC(=O)[C@H](CCCNC(=N)N)NC(=O)[C@H](CC(=O)O)NC(=O)[C@H](Cc1ccc(O)cc1)NC(=O)[C@H](CC(C)C)NC(=O)[C@H](CC(C)C)NC(=O)[C@@H](NC(=O)[C@@H](N)Cc1c[nH]c2ccccc12)C(C)C)C(C)C)C(=O)NCC(=O)NCC(=O)N[C@@H](CO)C(=O)N[C@@H](CC(C)C)C(=O)N[C@@H](CS)C(=O)N[C@H](C(=O)N[C@@H](CCC(N)=O)C(=O)N[C@H](C(=O)N[C@@H](CCC(N)=O)C(=O)N[C@H](C(=O)N[C@@H](CCC(=O)O)C(=O)N[C@H](C)C(=O)O)C(C)C)C(C)C)C(C)C [compound 25] (H-WVLLYDRHVIGGSLCVQVQVE[dA]-OH; N-terminus and C-terminus assumed)
Glucose Utilization (glucose concentration in medium), Percent of Untreated Control [1]: 107.2%
Caspase 3/7 Activity, Percent of Control Activity [2]: 108.8%
Percent of ATP Reduction Induced by Control [3]: 82.7%
Free Fatty Acid Levels, MEAN %ISO [4]: 91.6%

GWVLLYDRHVIGGSLCVVVQVEAY [compound 22]
Glucose Utilization (glucose concentration in medium), Percent of Untreated Control [1]: 70.4%
Caspase 3/7 Activity, Percent of Control Activity [2]: 105.0%
Percent of ATP Reduction Induced by Control [3]: 73.1%
Free Fatty Acid Levels, MEAN %ISO [4]: 84.7%

MAGVIRGVLVL [compound 8]
Glucose Utilization (glucose concentration in medium), Percent of Untreated Control [1]: 115.0%
Caspase 3/7 Activity, Percent of Control Activity [2]: 86.7%
Percent of ATP Reduction Induced by Control [3]: 92.6%
Free Fatty Acid Levels, MEAN %ISO [4]: 76.9%

MLLILTLVLL [compound 2]
Glucose Utilization (glucose concentration in medium), Percent of Untreated Control [1]: 113.5%
Caspase 3/7 Activity, Percent of Control Activity [2]: 86.6%
Percent of ATP Reduction Induced by Control [3]: 91.6%
Free Fatty Acid Levels, MEAN %ISO [4]: 80.7%

MMAGVIRGVLVL [compound 7]
Glucose Utilization (glucose concentration in medium), Percent of Untreated Control [1]: 128.3%
Caspase 3/7 Activity, Percent of Control Activity [2]: 84.6%
Percent of ATP Reduction Induced by Control [3]: 103.3%
Free Fatty Acid Levels, MEAN %ISO [4]: 66.4%

MRQWILHNGGMSFFC [compound 12]
Glucose Utilization (glucose concentration in medium), Percent of Untreated Control [1]: 113.6%
Caspase 3/7 Activity, Percent of Control Activity [2]: 109.7%
Percent of ATP Reduction Induced by Control [3]: 98.0%
Free Fatty Acid Levels, MEAN %ISO [4]: 67.1%

MRRRMFSCYLY [compound 17]
Glucose Utilization (glucose concentration in medium), Percent of Untreated Control [1]: 121.7%
Caspase 3/7 Activity, Percent of Control Activity [2]: 91.3%
Percent of ATP Reduction Induced by Control [3]: 94.2%
Free Fatty Acid Levels, MEAN %ISO [4]: 46.1%

RQWILHNGGMSFFC [compound 13]
Glucose Utilization (glucose concentration in medium), Percent of Untreated Control [1]: 115.0%
Caspase 3/7 Activity, Percent of Control Activity [2]: 115.8%
Percent of ATP Reduction Induced by Control [3]: 103.8%
Free Fatty Acid Levels, MEAN %ISO [4]: 74.0%

RRRMFSCYLY [compound 18]
Glucose Utilization (glucose concentration in medium), Percent of Untreated Control [1]: 124.0%
Caspase 3/7 Activity, Percent of Control Activity [2]: 95.7%
Percent of ATP Reduction Induced by Control [3]: 96.1%
Free Fatty Acid Levels, MEAN %ISO [4]: 58.5%
